The source of these data is patent US5665745A, “Heterocyclic compounds and their preparation and use” (Eli Lilly and Company, priority 1995, dated 1997).

Like-named read-outs stand apart in the source and are kept apart here.

For test [1], the target named is muscarinic acetylcholine receptors. The test is described as follows: inhibition of specific binding of ^3 H-Oxotremorine-M (^3 H-Oxo). Also on record: species or system rat (male Wistar. The settings on record: ^3 H-Oxotremorine 1.0 nM, rat cortex, 30 min. at 25° C. An excerpt: The pharmacological properties of the compounds of the invention can be illustrated by determining their capability to inhibit the specific binding of ^3 H-Oxotremorine-M (^3 H-Oxo). Birdsdall N. J. M., Hulme E. C., and Burgen A. S. V. (1980). "The Character of Muscarinic Receptors in Different Regions of the Rat Brain" Proc. Roy. Soc. London (Series B) 207,1.
^3 H-Oxo labels muscarinic receptor in the CNS (with a preference for agonist domains of the receptors). Three different sites are labeled by ^3 H-Oxo. […] Using the present experimental conditions only the high and medium affinity sites are determined.
The inhibitory effects of compounds on ^3 H-oxo binding reflects the affinity for muscarinic acetylcholine receptors.
All preparations are performed at 0°-4° C. unless otherwise indicated. Fresh cortex (0.1-1 g) from male Wistar rats (150-250 g) is homogenized for 5-10 seconds in 10 mL […] Hepes pH: 7.4, with an Ultra-Turrax homogenizer. The homogenizer is rinsed with 10 mL of buffer and the combined suspension centrifuged for 15 min. at 40,000×g. The pellet is washed three times with buffer. In each step the pellet is homogenized as before in 2×10 mL of buffer and centrifuged for 10 min. at 40,000×g.
The final pellet is homogenized in 20 mM Hepes pH: 7.4 (100 mL per g of original tissue) and used for binding assay. Aliquots of 0.5 mL is added 25 μL of test solution and 25 μL of ^3 H-Oxotremorine (1.0 nM, final concentration) mixed and incubated for 30 min. at 25° C. Non-specific binding is determined in triplicate using arecoline ([…], final concentration) as the test substance. After incubation samples are added 5 mL of ice-cold buffer and poured directly onto Whatman GF/C glass fiber filters under suction and immediately washed 2 times with 5 mL of ice-cold buffer. The amount of radioactivity on the filters are determined by conventional liquid scintillation counting. Specific binding is total binding minus non specific binding.
Test substances are dissolved in 10 mL water (if necessary heated on a steam-bath for less than 5 min.) at a concentration of 2.2 mg/mL. […] The test value will be given as IC50 (the concentration (nM) of the test substance which inhibits the specific binding of ^3 H-oxo by 50%). IC50 =(applied test substance concentration) x(Cx /Co -Cx)nM where Co is specific binding in control assays and Cx is the specific binding in the test assay. (The calculations assume normal mass-action kinetics).

Test [2] addresses T1, muscarinic receptors (M1 -site, pirenzepine sensitive site) (Rattus norvegicus, UniProt P08482).
T1 construct: from tissue; host or cells: cerebral cortex membranes of male Wistar rats
T1 sequence (P08482 1-460): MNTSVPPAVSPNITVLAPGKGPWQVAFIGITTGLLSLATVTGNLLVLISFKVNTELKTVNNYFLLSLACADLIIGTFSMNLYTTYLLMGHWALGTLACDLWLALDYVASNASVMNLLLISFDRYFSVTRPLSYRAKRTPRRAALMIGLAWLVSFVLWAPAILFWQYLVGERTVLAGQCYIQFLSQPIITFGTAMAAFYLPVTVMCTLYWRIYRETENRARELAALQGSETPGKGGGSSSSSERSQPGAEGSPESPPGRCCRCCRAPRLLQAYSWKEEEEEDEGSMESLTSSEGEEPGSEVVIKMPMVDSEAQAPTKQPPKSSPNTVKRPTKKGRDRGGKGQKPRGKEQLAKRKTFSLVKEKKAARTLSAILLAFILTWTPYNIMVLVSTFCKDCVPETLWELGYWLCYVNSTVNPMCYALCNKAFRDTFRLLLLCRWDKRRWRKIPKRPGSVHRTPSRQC
The test is described as follows: inhibition of ^3 HPRZ (pirenzepine, [N-methyl-^3 H]) binding to rat cerebral cortex membranes. Also on record: species or system rat (male Wistar. The procedure: Furthermore the pharmacological properties of the compounds of the invention can also be illustrated by determining their capability to inhibit ^3 HPRZ (pirenzepine, [N-methyl-^3 H]) binding to rat cerebral cortex membranes.
Pirenzepine binds selectively to subtype of muscarinic receptors. Historically the type is named the M1 -site, whereas pirenzepine sensitive site would be more appropriate.
All preparations are performed at 0°-4° C. unless otherwise indicated. Fresh cortex ([…]) from male Wistar rats (150-200 g) is homogenized for 5-10 s in 10 mL 20 mM Hepes pH: 7.4, with an Ultra-Turrax homogenizer. The homogenizer is rinsed with 2×10 mL of buffer and the combined suspension centrifuged for 15 min. at 40,000×g. The pellet is washed three times with buffer. In each step the pellet is homogenized as before in 3×10 mL of buffer and centrifuged for 10 min. at 40,000×g.
The final pellet is homogenized in 20 mM Hepes pH: 7.4 (100 mL per g of original tissue) and used for binding assay. Aliquots of 0.5 mL is added 20 μl of test solution and 25 μL of ^3 HPRZ (1.0 nM, final conc.), mixed and incubated for 60 min. at 20° C. Non-specific binding is determined in triplicate using atropine (1 ,μg/mL, final conc.) as the test substance. After incubation samples are added 5 mL of ice-cold buffer and poured directly onto Whatman GF/C glass fiber filters under suction and immediately washed 2 times with 5 mL of ice-cold buffer. The amount of radioactivity on the filters are determined by conventional liquid scintillation counting. Specific binding is total binding minus non-specific binding.
Test substances are dissolved in 10 mL water, at a concentration of 0.22 mg/mL.
The test value will be given as IC50 (the concentration (nM) of the test substance which inhibits the specific binding of ^3 HPRZ by 50%). IC50 =(applied test substance concentration) x(Cx /Co -Cx)nM where Co is specific binding in control assays and Cx is the specific binding in the test assay. (The calculations assume normal mass-action kinetics).

[3] abbreviates: ^3 HPRZ 1.0 nM, rat cortex, 60 min. at 20° C., read-out: ^3 HPRZ IC50 (head from b208 on: Pir IC-50).

For the compound `CCCCSc1nsnc1OC1CC2CCC1NC2` (racemic) [Compound 65, (±)3-Butylthio-4-(exo-2-azabicyclo[2.2.2]oct-6-yloxy)-1,2,5-thiadiazole], the values for the IC50 in test [1] and in test [2] (setting [3]) were 2.3 nM and 0.72 nM, respectively.
Take `FC(F)(F)C(F)(F)C(F)(F)COc1nsnc1OC1CN2CCC1CC2` (racemic) [Compound 69, (±)3-(2,2,3,3,4,4,4-heptafluorobutyloxy)-4-[-3-(1-azabicyclo[2.2.2]octyloxy)]-1,2,5-thiadiazole]: the IC50 in test [1] turned out to be 29 nM; in test [2], 20 nM.
For the compound `Fc1ccc(CCCSc2nsnc2OC2CN3CCC2CC3)cc1` (racemic) [Compound 73, (±)3-[3-(4-Fluorophenyl)propylthio]-4-[-3-(1-azabicyclo[2.2.2]octyloxy)]-1,2,5-thiadiazole], the half-maximal inhibitory concentration (IC50) in test [1] came out at 4.1 nM; in test [2] it was 6.5 nM.
On to `FC(F)(F)c1ccc(CCCSc2nsnc2OC2CN3CCC2CC3)cc1` (racemic) [Compound 74, (±)3-{3-[4-(Trifluoromethyl)phenyl]propylthio}-4-[-3-(1-azabicyclo[2.2.2]octyloxy)]-1,2,5-thiadiazole], for which the results for the concentration for half-maximal inhibition (IC50) in test [1] and in test [2] were 24 nM and 40 nM, respectively.
As for `CCCCNc1nsnc1OC1CN2CCC1CC2` (racemic) [Compound 75, 3-(1-Butylamino)-4-[(+,-)-3-(azabicyclo[2.2.2]octyloxy)]-1,2,5-thiadiazole], the values for the half-maximal inhibitory concentration (IC50) in test [1] and in test [2] (setting [3]) were 65 nM and 128 nM, respectively.
For the compound `CSCCc1nsnc1OC1CN2CCC1CC2` (racemic) [Compound 99, (±)-3-(2-Methylthioethyl)-4-(1-azabicyclo[2.2.2]octyl-3-oxy)-1,2,5-thiadiazole], the half-maximal inhibitory concentration (IC50) in test [1] turned out to be 41 nM; in test [2], 70 nM.
In the case of `c1nsnc1OC1CN2CCC1CC2` (racemic) [Compound 100, (±)-3-(1-azabicyclo[2.2.2]octyl-3-oxy)-1,2,5-thiadiazole], the IC50 in test [1] came to 873 nM; in test [2] (setting [3]), 846 nM.
With `CCCCCCc1nsnc1OC1CN2CCC1CC2` (racemic) [Compound 101, (±)-3-Hexyl-4-(1-azabicyclo[2.2.2]octyl-3-oxy)-1,2,5-thiadiazole], the figures for the half-maximal inhibitory concentration (IC50) in test [1] and in test [2] were 88 nM and 36 nM, respectively.
Consider `CCCCS(=O)(=O)c1nsnc1OC1CN2CCC1CC2` (racemic) [Compound 102, (±)-3-Butylsulfonyl-4-(1-azabicyclo[2.2.2]octyl-3-oxy)-1,2,5-thiadiazole], for which the results for the IC50 in test [1] and in test [2] (setting [3]) were 378 nM and 187 nM, respectively.
For `CCCS(=O)(=O)c1nsnc1OC1CN2CCC1CC2` (racemic) [Compound 103, (±)-3-propylsulfonyl-4-(1-azabicyclo[2.2.2]octyl-3-oxy)-1,2,5-thiadiazole], the figures for the IC50 in test [1] and in test [2] (setting [3]) were 107 nM and 115 nM, respectively.
Turning to `FC(F)(F)CCCOc1nsnc1OC1CN2CCC1CC2` (racemic) [Compound 104, (±)-3-(4,4,4-Trifluorobutyloxy)-4-(1-azabicyclo[2.2.2]octyl-3-oxy)-1,2,5-thiadiazole], the IC50 amounted to 107 nM in test [1] and 115 nM in test [2] (setting [3]).
On to `CC#CCOc1nsnc1OC1CN2CCC1CC2` (racemic) [Compound 105, (±)-3-(2-butynyloxy)-4-(1-azabicyclo[2.2.2]octyl-3-oxy)-1,2,5-thiadiazole], for which the half-inhibitory concentration (IC50) in test [1] was found to be 7.9 nM; in test [2], 65.6 nM.
For the compound `C1CC1COc1nsnc1OC1CN2CCC1CC2` (racemic) [Compound 106, (±)-3-(Cyclopropylmethoxy)-4-(1-azabicyclo[2.2.2]octyl-3-oxy)-1,2,5-thiadiazole], the concentration for half-maximal inhibition (IC50) in test [1] worked out at 9.5 nM; in test [2], 95.4 nM.
In the case of `C(#Cc1ccccc1)COc1nsnc1OC1CN2CCC1CC2` (racemic) [Compound 107, (±)-3-(3-phenylpropynyloxy)-4-(1-azabicyclo[2.2.2]octyl-3-oxy)-1,2,5-thiadiazole], the IC50 in test [1] is 9.6 nM; in test [2] it was 22.4 nM.
For the compound `C=CCCOc1nsnc1OC1CN2CCC1CC2` (racemic) [Compound 108, (±)-3-(3-Butenyloxy)-4-(1-azabicyclo[2.2.2]octyl-3-oxy)-1,2,5-thiadiazole], the IC50 in test [1] is 9.1 nM; in test [2], 56.1 nM.
Taken in the same sequence, the figures for `COCCOc1nsnc1OC1CN2CCC1CC2` (racemic) [Compound 111, (±)-3-(2-Methoxyethoxy)-4-(1-azabicyclo[2.2.2]octyl-3-oxy)-1,2,5-thiadiazole] were 38 nM and 85 nM.
For `c1ccc(OCCOc2nsnc2OC2CN3CCC2CC3)cc1` (racemic) [Compound 112, (±)-3-(2-Phenoxyethoxy)-4-(1-azabicyclo[2.2.2]octyl-3-oxy)-1,2,5-thiadiazole], the results for the IC50 in test [1] and in test [2] (setting [3]) were 16 nM and 153 nM, respectively.
Regarding `C#CCCOc1nsnc1OC1CN2CCC1CC2` (racemic) [Compound 113, (±)-3-(3-butynoxy)-4-(1-azabicyclo[2.2.2]octyl-3-oxy)-1,2,5-thiadiazole], the IC50 in test [1] worked out at 3.6 nM; in test [2], 23 nM.
`C(CC1CC1)Oc1nsnc1OC1CN2CCC1CC2` (racemic) [Compound 114, (±)-3-(2-Cyclopropylethoxy)-4-(1-azabicyclo[2.2.2]octyl-3-oxy)-1,2,5-thiadiazole]: the half-maximal inhibitory concentration (IC50) stood at 9.3 nM in test [1] and 43 nM in test [2].
Consider `CSCCOc1nsnc1OC1CN2CCC1CC2` (racemic) [Compound 115, (±)-3-(2-(Methylthio)ethoxy)-4-(1-azabicyclo[2.2.2]octyl-3-oxy)-1,2,5-thiadiazole], for which the IC50 in test [1] was 19 nM; in test [2] (setting [3]) it was 532 nM.
With `ClCCCOc1nsnc1OC1CN2CCC1CC2` (racemic) [Compound 116, (±)-3-(3-Chloropropoxy)-4-(1-azabicyclo[2.2.2]octyl-3-oxy)-1,2,5-thiadiazole], the IC50 is 14 nM in test [1] and 33 nM in test [2].
On to `FCCCCOc1nsnc1OC1CN2CCC1CC2` (racemic) [Compound 117, (±)-3-(4-Fluorobutyloxy)-4-(1-azabicyclo[2.2.2]octyl-3-oxy)-1,2,5-thiadiazole], for which the IC50 came out at 32 nM in test [1] and 238 nM in test [2] (setting [3]).
